Experimental data published in ChEMBL document CHEMBL3885881, “DrugMatrix”.

Species: Rattus norvegicus
Assay: DrugMatrix - Regimen: Daily Repeat
Assay type: toxicity, organism-based, Sprague-Dawley
Design: regimen Daily Repeat, gender Male, age 6-8 weeks
Conditions: in vivo, po, route oral GAVAGE, […]; for ABSOLUTE BASOPHIL / ABSOLUTE EOSINOPHIL / ABSOLUTE LYMPHOCYTE / ABSOLUTE MONOCYTE / ABSOLUTE SEGMENTED NEUTROPHIL / BASOPHIL / EOSINOPHIL / ERYTHROCYTE COUNT / HEMATOCRIT / HEMOGLOBIN / LEUKOCYTE COUNT / LYMPHOCYTE / MEAN CORPUSCULAR HEMOGLOBIN / MEAN CORPUSCULAR HEMOGLOBIN CONCENTRATION / MEAN CORPUSCULAR VOLUME / MONOCYTE / NEUTROPHIL / NUCLEATED RED BLOOD CELLS / PLATELET COUNT: tissue Blood; for ALANINE AMINOTRANSFERASE / ALBUMIN / ALKALINE PHOSPHATASE / ASPARTATE AMINOTRANSFERASE / BLOOD UREA NITROGEN / CARBON DIOXIDE / CHLORIDE / CHOLESTEROL / CREATINE PHOSPHOKINASE / CREATININE / GLUCOSE / LACTATE DEHYDROGENASE / LIPASE / PHOSPHORUS / POTASSIUM / SODIUM / TOTAL BILIRUBIN / TOTAL PROTEIN / URIC ACID: tissue Plasma
[1] = 0 mg/kg, 72 h, dose level Control, time 3 day
[2] = 0 mg/kg, 120 h, dose level Control, time 5 day
[3] = 0 mg/kg, dose level Control, time 14 day
[4] = 1200 mg/kg, 72 h, dose level High, time 3 day
[5] = 1200 mg/kg, dose level High, time 14 day

SMILES: CC[C@H](C)C(=O)O[C@H]1C[C@H](O)C=C2C=C[C@H](C)[C@H](CC[C@@H](O)C[C@@H](O)CC(=O)O)[C@H]21 [PRAVASTATIN]
- ABSOLUTE BASOPHIL [1]: 0 CELLS/uL
- ABSOLUTE EOSINOPHIL [1]: 14 CELLS/uL
- ABSOLUTE LYMPHOCYTE [1]: 11144.67 CELLS/uL
- ABSOLUTE MONOCYTE [1]: 22.5 CELLS/uL
- ABSOLUTE SEGMENTED NEUTROPHIL [1]: 535.5 CELLS/uL
- BASOPHIL [1]: 0%
- EOSINOPHIL [1]: 0.17%
- ERYTHROCYTE COUNT [1]: 5.08 x10E6/uL
- HEMATOCRIT [1]: 32.32%
- HEMOGLOBIN [1]: 12.87 G/DL
- LEUKOCYTE COUNT [1]: 11.72 x10E3/uL
- LYMPHOCYTE [1]: 94.67%
- MEAN CORPUSCULAR HEMOGLOBIN [1]: 25.37 pg
- MEAN CORPUSCULAR HEMOGLOBIN CONCENTRATION [1]: 39.85 G/DL
- MEAN CORPUSCULAR VOLUME [1]: 63.58 fL
- MONOCYTE [1]: 0.17%
- NEUTROPHIL [1]: 5%
- NUCLEATED RED BLOOD CELLS [1]: 0 /100WBC
- PLATELET COUNT [1]: 1084 x10E3/uL
- ALANINE AMINOTRANSFERASE [1]: 67.5 u/L
- ALBUMIN [1]: 4.02 G/DL
- ALKALINE PHOSPHATASE [1]: 374.17 u/L
- ASPARTATE AMINOTRANSFERASE [1]: 83.5 u/L
- BLOOD UREA NITROGEN [1]: 14.5 mg/dL
- CARBON DIOXIDE [1]: 30 mmol/L
- CHLORIDE [1]: 100.5 MEQ/L
- CHOLESTEROL [1]: 71.33 mg/dL
- CREATINE PHOSPHOKINASE [1]: 268.33 u/L
- CREATININE [1]: 0.16 mg/dL
- GLUCOSE [1]: 170.5 mg/dL
- LACTATE DEHYDROGENASE [1]: 81.17 u/L
- LIPASE [1]: 16.67 u/L
- PHOSPHORUS [1]: 10.07 mg/dL
- POTASSIUM [1]: 5.03 MEQ/L
- SODIUM [1]: 142.92 MEQ/L
- TOTAL BILIRUBIN [1]: 0.17 mg/dL
- TOTAL PROTEIN [1]: 5.63 G/DL
- URIC ACID [1]: 0.5 mg/dL
- ABSOLUTE SEGMENTED NEUTROPHIL [2]: 646.83 CELLS/uL
- NUCLEATED RED BLOOD CELLS [2]: 0.17 /100WBC
- ABSOLUTE BASOPHIL [3]: 100 cells/µL
- ABSOLUTE EOSINOPHIL [3]: 57.5 cells/µL
- ABSOLUTE LYMPHOCYTE [3]: 11800 cells/µL
- ABSOLUTE MONOCYTE [3]: 290 cells/µL
- BASOPHIL [3]: 0.47%
- EOSINOPHIL [3]: 0.41%
- ERYTHROCYTE COUNT [3]: 7.31 x10E6/uL
- HEMATOCRIT [3]: 46.8%
- HEMOGLOBIN [3]: 14.69 G/DL
- LEUKOCYTE COUNT [3]: 14.73 x10E3/uL
- LYMPHOCYTE [3]: 80.94%
- MEAN CORPUSCULAR HEMOGLOBIN [3]: 20.09 pg
- MEAN CORPUSCULAR HEMOGLOBIN CONCENTRATION [3]: 31.41 G/DL
- MEAN CORPUSCULAR VOLUME [3]: 64.03 fL
- MONOCYTE [3]: 1.9%
- NEUTROPHIL [3]: 15.1%
- PLATELET COUNT [3]: 1273.62 x10E3/uL
- ALANINE AMINOTRANSFERASE [3]: 56.75 u/L
- ALBUMIN [3]: 3.84 G/DL
- ALKALINE PHOSPHATASE [3]: 530.25 u/L
- ASPARTATE AMINOTRANSFERASE [3]: 78.88 u/L
- BLOOD UREA NITROGEN [3]: 12.25 mg/dL
- CARBON DIOXIDE [3]: 41.38 mmol/L
- CHLORIDE [3]: 102.38 MEQ/L
- CHOLESTEROL [3]: 67.88 mg/dL
- CREATINE PHOSPHOKINASE [3]: 297.25 u/L
- CREATININE [3]: 0.61 mg/dL
- GLUCOSE [3]: 161.88 mg/dL
- LACTATE DEHYDROGENASE [3]: 161.38 u/L
- LIPASE [3]: 16.75 u/L
- PHOSPHORUS [3]: 10.13 mg/dL
- POTASSIUM [3]: 6.73 MEQ/L
- SODIUM [3]: 149 MEQ/L
- TOTAL BILIRUBIN [3]: 0.29 mg/dL
- TOTAL PROTEIN [3]: 6.73 G/DL
- URIC ACID [3]: 1.14 mg/dL
- ABSOLUTE BASOPHIL [4]: 0 CELLS/uL
- BASOPHIL [4]: 0%
- NUCLEATED RED BLOOD CELLS (1200 mg/kg, 120 h, dose level High, time 5 day): 0 /100WBC
- ABSOLUTE BASOPHIL [5]: 66.7 cells/µL
- ABSOLUTE EOSINOPHIL [5]: 80 cells/µL
- ABSOLUTE LYMPHOCYTE [5]: 4950 cells/µL
- ABSOLUTE MONOCYTE [5]: 1.18 CELLS/uL
- BASOPHIL [5]: 0.33%
- EOSINOPHIL [5]: 0.5%
- ERYTHROCYTE COUNT [5]: 8.11 x10E6/uL
- HEMATOCRIT [5]: 47.4%
- HEMOGLOBIN [5]: 15.87 G/DL
- LEUKOCYTE COUNT [5]: 17.97 x10E3/uL
- LYMPHOCYTE [5]: 29.8%
- MEAN CORPUSCULAR HEMOGLOBIN [5]: 19.53 pg
- MEAN CORPUSCULAR HEMOGLOBIN CONCENTRATION [5]: 33.43 G/DL
- MEAN CORPUSCULAR VOLUME [5]: 58.47 fL
